Experimental data published in ChEMBL document CHEMBL1201862, “PubChem BioAssay data set” (2004).
“And” between values parts separate entries of the source, which are not always exact repeats. Equal entries are not always repeated.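 Dose response: 5 concentrations. Exposure: 48 h. Format: 96-well plates. Endpoint: linear interpolation; highest concentration if not reached. GI50 marks 50% less growth.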 The source made the active and inactive calls. Rule as the data show it: active = GI50 up to about 1.1 µM and inactive = higher.

Tests used:
Experiment in all cases: NCI-60 cell line screen, 48 h
SK-MEL-2 = system: SK-MEL-2
OVCAR-4 = system: OVCAR-4
M14 = system: M14
SK-MEL-5 = system: SK-MEL-5
NCI/ADR-RES = system: NCI/ADR-RES
MDA-N = system: MDA-N
SN12C = system: SN12C
A498 = system: A498
U-251 = system: U-251
HOP-62 = system: HOP-62
MCF7 = system: MCF7
SK-OV-3 = system: SK-OV-3
SF-539 = system: SF-539
EKVX = system: EKVX
UACC-62 = system: UACC-62
UO-31 = system: UO-31
MOLT-4 = system: MOLT-4
A549 = system: A549
SNB-75 = system: SNB-75
UACC-257 = system: UACC-257

SMILES | GI50 (SK-MEL-2) | GI50 (OVCAR-4) | GI50 (M14) | GI50 (SK-MEL-5) | GI50 (NCI/ADR-RES) | GI50 (MDA-N) | GI50 (SN12C) | GI50 (A498) | GI50 (U-251) | GI50 (HOP-62) | GI50 (MCF7) | GI50 (SK-OV-3) | GI50 (SF-539) | GI50 (EKVX) | GI50 (UACC-62) | GI50 (UO-31) | GI50 (MOLT-4) | GI50 (A549) | GI50 (SNB-75) | GI50 (UACC-257)
Nc1nc(N)c2c(Cl)c(CNc3ccc(C(=O)NC(CC(=O)O)C(=O)O)cc3)ccc2n1 (stereo not given) | > 100 µM (inactive) | 3.69 µM (inactive) | < 0.01 µM (active) | < 0.01 µM (active) | < 0.01 µM (active) | < 0.01 µM (active) | < 0.01 µM (active) | < 0.01 µM (active) | < 0.01 µM (active) | < 0.027 µM (active) | < 0.01 µM (active) | < 0.01 µM (active) | < 0.01 µM (active) | < 0.01 µM (active) | < 0.01 µM (active) | < 0.01 µM (active) | < 0.01 µM (active) | < 0.01 µM (active) | 8.87 µM (inactive) | 
CC(=O)c1c(-c2cccc3ccccc23)c(C#N)c(=S)n(C2OC(CO)C(O)C(O)C2O)c1C (stereo not given) | > 100 µM (inactive) | > 100 µM (inactive) |  | > 100 µM (inactive) | 62.2 µM (inactive) | 50.1 µM (inactive) | 81.3 µM (inactive) | > 100 µM (inactive) |  | 54.8 µM (inactive) | > 100 µM (inactive) | > 100 µM (inactive) |  | 11.1 µM (inactive) | 64.7 µM (inactive) | 87.5 µM (inactive) | 38.9 µM (inactive) and 49.3 µM (inactive) | > 100 µM (inactive) | > 100 µM (inactive) | 69 µM (inactive)
COc1ccc(N2C(=O)/C(=C\c3ccccc3)SC2c2cc(OC)c(OC)c(OC)c2)cc1 (stereo not given) | 30.4 µM (inactive) | 82.4 µM (inactive) | 28.5 µM (inactive) | 48.4 µM (inactive) | > 100 µM (inactive) | 16.9 µM (inactive) | > 100 µM (inactive) | 73.8 µM (inactive) | 43.9 µM (inactive) | 65.8 µM (inactive) | 38.4 µM (inactive) | 48.9 µM (inactive) |  | 15 µM (inactive) | 52.5 µM (inactive) | 50.4 µM (inactive) | 65.6 µM (inactive) | > 100 µM (inactive) | 8.05 µM (inactive) | > 100 µM (inactive)
Cc1ccc2nc(SCC(=O)N/N=C3\C(=O)Nc4ccccc43)n(-c3ccccc3)c(=O)c2c1 | 1.69 µM (inactive) | 13.2 µM (inactive) | 16.3 µM (inactive) | 15.7 µM (inactive) | 13.3 µM (inactive) | 19 µM (inactive) | 15.7 µM (inactive) | 14.9 µM (inactive) | 12.3 µM (inactive) | 12.2 µM (inactive) | 16.1 µM (inactive) | 13.8 µM (inactive) | 5.7 µM (inactive) | 15.6 µM (inactive) | 16.9 µM (inactive) | 2.02 µM (inactive) | 17.6 µM (inactive) | 15.2 µM (inactive) |  | 24 µM (inactive)
Cc1ccc(C2=Nn3c(nc4sc(-c5ccccc5)cc4c3=O)SC2)cc1 |  | > 100 µM (inactive) |  | > 100 µM (inactive) | > 100 µM (inactive) | > 100 µM (inactive) | > 100 µM (inactive) | > 100 µM (inactive) | > 100 µM (inactive) | > 100 µM (inactive) | > 100 µM (inactive) | > 100 µM (inactive) | > 100 µM (inactive) | > 100 µM (inactive) | > 100 µM (inactive) | > 100 µM (inactive) | > 100 µM (inactive) | > 100 µM (inactive) | > 100 µM (inactive) | > 100 µM (inactive)
N[C@@H]1C[C@H](N)c2c(Cl)sc(Cl)c21 | > 100 µM (inactive) | > 100 µM (inactive) | > 100 µM (inactive) | > 100 µM (inactive) | > 100 µM (inactive) | > 100 µM (inactive) | > 100 µM (inactive) | 61.5 µM (inactive) | > 100 µM (inactive) | > 100 µM (inactive) | > 100 µM (inactive) |  | > 100 µM (inactive) | > 100 µM (inactive) | > 100 µM (inactive) | > 100 µM (inactive) | > 100 µM (inactive) | > 100 µM (inactive) | > 100 µM (inactive) | > 100 µM (inactive)
CCCCN1C(=O)CS/C1=N/Nc1nc2c([nH]1)c(=O)n(C)c(=O)n2C | 30 µM (inactive) | 19.5 µM (inactive) | 28.5 µM (inactive) | 37.8 µM (inactive) | > 100 µM (inactive) | 14.6 µM (inactive) | 33.6 µM (inactive) | > 100 µM (inactive) | 15 µM (inactive) | 4.62 µM (inactive) | 13.7 µM (inactive) | 6.47 µM (inactive) | 37.8 µM (inactive) | > 100 µM (inactive) | 86.5 µM (inactive) | > 100 µM (inactive) | 21.8 µM (inactive) | > 100 µM (inactive) |  | > 100 µM (inactive)
